Measured values reported in patent US20250034216A1, “STEREOSELECTIVE COVALENT LIGANDS FOR ONCOGENIC AND IMMUNOLOGICAL PROTEINS” (The Scripps Research Institute, priority 2021, published 2025).

Legend:
Experiment in all cases: IA-DTB cysteine engagement
Format in all cases: binding
SLC25A20_C89 = biological target: T1, SLC25A20_C89 (Homo sapiens, UniProt O43772); details: 22Rv1 cells, 20 μM probe, 1 h, relative to DMSO
T1 construct: endogenous in cells; host or cells: 22Rv1
T1 sequence (O43772 1-301): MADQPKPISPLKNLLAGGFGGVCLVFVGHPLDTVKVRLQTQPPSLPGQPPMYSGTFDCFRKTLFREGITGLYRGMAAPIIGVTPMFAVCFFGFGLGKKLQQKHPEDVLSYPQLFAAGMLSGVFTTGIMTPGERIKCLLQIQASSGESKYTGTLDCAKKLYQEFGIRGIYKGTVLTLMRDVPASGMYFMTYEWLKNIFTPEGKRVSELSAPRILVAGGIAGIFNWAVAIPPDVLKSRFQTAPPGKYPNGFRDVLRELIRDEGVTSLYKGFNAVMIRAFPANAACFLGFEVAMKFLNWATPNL
How it was run: (§1)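 First, cells are exposed to electrophilic probes in situ. Next, lysates are labeled with IA-DTB (1 h, ambient temperature), reduced, alkylated and trypsin-digested. Then, IA-DTB peptides are enriched on streptavidin, TMT-labeled and analyzed, with ratios taken against DMSO channels.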

LAPTM4A_C20 = biological target: T2, LAPTM4A_C20 (Homo sapiens, UniProt Q15012); details: 22Rv1 cells, 20 μM probe, 1 h, relative to DMSO
T2 construct: endogenous in cells; host or cells: 22Rv1
How it was run: as §1

TRPM4_C759 = biological target: T3, TRPM4_C759 (Homo sapiens, UniProt Q8TD43); details: 22Rv1 cells, 20 μM probe, 1 h, relative to DMSO
T3 construct: endogenous in cells; host or cells: 22Rv1
T3 sequence (Q8TD43 whole entry): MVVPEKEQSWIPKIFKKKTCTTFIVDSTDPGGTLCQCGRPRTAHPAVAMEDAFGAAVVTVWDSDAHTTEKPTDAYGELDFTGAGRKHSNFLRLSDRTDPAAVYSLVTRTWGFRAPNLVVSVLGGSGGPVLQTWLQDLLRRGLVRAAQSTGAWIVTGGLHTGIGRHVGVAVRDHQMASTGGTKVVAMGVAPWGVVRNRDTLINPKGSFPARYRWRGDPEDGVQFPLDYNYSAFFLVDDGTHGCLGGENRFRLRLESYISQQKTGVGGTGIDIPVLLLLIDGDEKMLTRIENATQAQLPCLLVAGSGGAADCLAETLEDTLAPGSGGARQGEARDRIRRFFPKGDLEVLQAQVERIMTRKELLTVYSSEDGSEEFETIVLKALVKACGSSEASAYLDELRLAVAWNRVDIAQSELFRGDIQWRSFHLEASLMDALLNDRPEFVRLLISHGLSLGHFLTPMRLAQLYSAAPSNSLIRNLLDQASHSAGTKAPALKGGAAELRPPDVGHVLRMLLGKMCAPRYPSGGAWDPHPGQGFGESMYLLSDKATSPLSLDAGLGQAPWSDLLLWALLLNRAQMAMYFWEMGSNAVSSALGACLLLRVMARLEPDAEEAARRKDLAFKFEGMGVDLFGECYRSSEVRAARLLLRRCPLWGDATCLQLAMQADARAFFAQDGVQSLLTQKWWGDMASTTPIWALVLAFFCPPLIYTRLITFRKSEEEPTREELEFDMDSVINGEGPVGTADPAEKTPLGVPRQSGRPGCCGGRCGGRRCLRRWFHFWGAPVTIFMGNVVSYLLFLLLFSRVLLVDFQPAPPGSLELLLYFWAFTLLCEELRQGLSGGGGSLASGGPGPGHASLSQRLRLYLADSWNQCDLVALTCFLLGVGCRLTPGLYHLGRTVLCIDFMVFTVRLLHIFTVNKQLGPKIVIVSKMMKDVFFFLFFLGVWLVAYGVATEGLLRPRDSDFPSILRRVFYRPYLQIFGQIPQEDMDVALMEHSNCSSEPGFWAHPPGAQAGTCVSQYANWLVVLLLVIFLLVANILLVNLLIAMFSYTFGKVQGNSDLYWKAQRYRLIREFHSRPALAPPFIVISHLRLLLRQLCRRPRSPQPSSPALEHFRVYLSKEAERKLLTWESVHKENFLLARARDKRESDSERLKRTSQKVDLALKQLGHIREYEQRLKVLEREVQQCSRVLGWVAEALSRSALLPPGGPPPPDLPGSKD
How it was run: as §1

CBX1_C60 = biological target: T4, CBX1_C60 (Homo sapiens, UniProt P83916); details: 22Rv1 cells, 20 μM probe, 1 h, relative to DMSO
T4 construct: endogenous in cells; host or cells: 22Rv1
T4 sequence (P83916 whole entry): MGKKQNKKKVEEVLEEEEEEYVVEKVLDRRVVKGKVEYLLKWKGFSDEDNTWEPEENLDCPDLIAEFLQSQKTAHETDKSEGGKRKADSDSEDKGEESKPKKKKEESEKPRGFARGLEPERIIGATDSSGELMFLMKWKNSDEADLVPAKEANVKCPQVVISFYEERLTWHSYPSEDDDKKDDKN
How it was run: as §1

IFT43_C58 = biological target: T5, IFT43_C58 (Homo sapiens, UniProt Q96FT9); details: 22Rv1 cells, 20 μM probe, 1 h, relative to DMSO
T5 construct: endogenous in cells; host or cells: 22Rv1
T5 sequence (Q96FT9 1-208): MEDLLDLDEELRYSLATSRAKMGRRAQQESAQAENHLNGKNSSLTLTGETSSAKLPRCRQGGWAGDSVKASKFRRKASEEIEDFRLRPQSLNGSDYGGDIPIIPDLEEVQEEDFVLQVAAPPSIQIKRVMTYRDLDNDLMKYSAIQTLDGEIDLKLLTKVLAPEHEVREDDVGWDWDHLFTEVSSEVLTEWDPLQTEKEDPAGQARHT
How it was run: as §1

TOMM70_C214 = biological target: T6, TOMM70_C214 (Homo sapiens, UniProt O94826); details: 22Rv1 cells, 20 μM probe, 1 h, relative to DMSO
T6 construct: endogenous in cells; host or cells: 22Rv1
T6 sequence (O94826 1-608): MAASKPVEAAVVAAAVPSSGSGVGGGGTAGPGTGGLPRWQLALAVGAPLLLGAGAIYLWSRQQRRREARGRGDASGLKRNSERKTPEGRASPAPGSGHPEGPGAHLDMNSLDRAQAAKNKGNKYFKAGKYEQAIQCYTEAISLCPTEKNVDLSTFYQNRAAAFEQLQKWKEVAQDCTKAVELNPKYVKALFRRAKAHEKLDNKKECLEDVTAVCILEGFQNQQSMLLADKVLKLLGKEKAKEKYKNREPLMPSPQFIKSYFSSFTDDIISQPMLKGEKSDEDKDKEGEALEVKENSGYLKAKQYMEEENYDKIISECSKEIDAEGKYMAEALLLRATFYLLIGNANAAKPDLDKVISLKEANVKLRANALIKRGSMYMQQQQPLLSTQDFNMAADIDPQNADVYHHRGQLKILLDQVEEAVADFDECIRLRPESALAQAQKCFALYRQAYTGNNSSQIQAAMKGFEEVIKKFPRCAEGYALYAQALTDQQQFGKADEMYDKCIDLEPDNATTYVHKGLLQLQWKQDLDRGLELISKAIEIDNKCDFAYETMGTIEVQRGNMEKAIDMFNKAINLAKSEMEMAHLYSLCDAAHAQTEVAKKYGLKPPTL
How it was run: as §1

SLC25A20_C283 = biological target: T7, SLC25A20_C283 (Homo sapiens, UniProt O43772); details: 22Rv1 cells, relative to DMSO; for % engagement SLC25A20_C283: 20 μM probe, 1 h; for % engagement SLC25A20_283: 5 μM probe, 1 h (FIG. 5B)
T7 construct: endogenous in cells; host or cells: 22Rv1
T7 sequence (O43772 1-301): T1 sequence (O43772 1-301)
How it was run: as §1

PRRT3_C720 = biological target: T8, PRRT3_C720 (Homo sapiens, UniProt Q5FWE3); details: 22Rv1 cells, 20 μM probe, 1 h, relative to DMSO
T8 construct: endogenous in cells; host or cells: 22Rv1
T8 sequence (Q5FWE3 28-981): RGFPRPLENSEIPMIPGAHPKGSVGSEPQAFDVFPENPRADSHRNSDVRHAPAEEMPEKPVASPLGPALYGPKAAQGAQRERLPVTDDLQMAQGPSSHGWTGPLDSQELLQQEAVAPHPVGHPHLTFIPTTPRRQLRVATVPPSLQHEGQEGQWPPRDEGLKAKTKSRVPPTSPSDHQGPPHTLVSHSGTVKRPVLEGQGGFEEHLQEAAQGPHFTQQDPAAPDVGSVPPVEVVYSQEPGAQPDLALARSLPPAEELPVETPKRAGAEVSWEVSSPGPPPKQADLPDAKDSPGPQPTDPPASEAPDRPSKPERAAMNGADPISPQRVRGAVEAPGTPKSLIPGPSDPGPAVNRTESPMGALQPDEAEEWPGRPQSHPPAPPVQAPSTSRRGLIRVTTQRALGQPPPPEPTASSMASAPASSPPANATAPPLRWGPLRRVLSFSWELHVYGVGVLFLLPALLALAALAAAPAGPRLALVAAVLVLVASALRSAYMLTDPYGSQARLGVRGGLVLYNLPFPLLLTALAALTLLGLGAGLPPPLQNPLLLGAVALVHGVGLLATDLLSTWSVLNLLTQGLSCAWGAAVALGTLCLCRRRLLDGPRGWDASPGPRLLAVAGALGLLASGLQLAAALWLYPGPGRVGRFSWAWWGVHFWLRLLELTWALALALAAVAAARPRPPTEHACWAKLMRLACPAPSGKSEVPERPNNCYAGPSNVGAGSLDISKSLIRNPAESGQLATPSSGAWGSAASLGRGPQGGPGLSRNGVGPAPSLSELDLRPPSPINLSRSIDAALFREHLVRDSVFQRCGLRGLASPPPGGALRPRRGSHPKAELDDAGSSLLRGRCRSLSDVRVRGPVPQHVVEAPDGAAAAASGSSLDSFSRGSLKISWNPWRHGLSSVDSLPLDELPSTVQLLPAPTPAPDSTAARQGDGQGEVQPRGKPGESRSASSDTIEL
How it was run: as §1

Row | Structure (SMILES) | % engagement SLC25A20_C89 (SLC25A20_C89) | % engagement LAPTM4A_C20 (LAPTM4A_C20) | % engagement CBX1_C60 (CBX1_C60) | % engagement IFT43_C58 (IFT43_C58) | % engagement TOMM70_C214 (TOMM70_C214) | % engagement SLC25A20_C283 (SLC25A20_C283) | % engagement PRRT3_C720 (PRRT3_C720) | % engagement SLC25A20_283 (SLC25A20_C283) | % engagement TRPM4_C759 (TRPM4_C759)
1 | C=CC(=O)N1C[C@@H](c2ccc(Br)cc2)[C@H]1C(=O)Nc1cccc2cccnc12 [MY-1A, (2S,3R)-1-acryloyl-3-(4-bromophenyl)-N-(quinolin-8-yl)azetidine-2-carboxamide] | 9.5% | 69% | −11.5% | 28.5% | 7.5% | 37% | 47% | – | 69.75%
2 | C=CC(=O)N1C[C@H](c2ccc(Br)cc2)[C@@H]1C(=O)Nc1cccc2cccnc12 [MY-1B, (2R,3S)-1-acryloyl-3-(4-bromophenyl)-N-(quinolin-8-yl)azetidine-2-carboxamide] | 94% | 55% | −14.5% | −17% | 29% | 92% | 53% | 82.75% | 48.75%
3 | CC#CC(=O)N1C[C@H](c2ccc(Br)cc2)[C@@H]1C(=O)Nc1cccc2cccnc12 [MY-45B, (2R,3S)-3-(4-bromophenyl)-1-(but-2-ynoyl)-N-(quinolin-8-yl)azetidine-2-carboxamide] | – | – | – | – | – | – | – | 20.50% | –

More lines, main results first:

Row | % engagement SLC25A20_C89 (SLC25A20_C89) | % engagement LAPTM4A_C20 (LAPTM4A_C20) | % engagement CBX1_C60 (CBX1_C60) | % engagement IFT43_C58 (IFT43_C58) | % engagement TOMM70_C214 (TOMM70_C214) | % engagement SLC25A20_C283 (SLC25A20_C283) | % engagement PRRT3_C720 (PRRT3_C720) | % engagement SLC25A20_283 (SLC25A20_C283) | Structure (SMILES) | % engagement TRPM4_C759 (TRPM4_C759)
4 | 91% | 70.5% | 75% | 71.5% | 71.5% | −241% | 71% | – | C=CC(=O)N1C[C@H](c2ccc(Br)cc2)[C@H]1C(=O)Nc1cccc2cccnc12 [MY-3B, (2S,3S)-1-acryloyl-3-(4-bromophenyl)-N-(quinolin-8-yl)azetidine-2-carboxamide] | 76.25%
5 | 45% | 49.5% | 14.5% | 17% | 30.5% | 66% | 45.5% | – | C=CC(=O)N1C[C@H](c2ccc(Br)cc2)[C@H]1C(=O)Nc1cccc2cccnc12 [MY-3A, (2S,3S)-1-acryloyl-3-(4-bromophenyl)-N-(quinolin-8-yl)azetidine-2-carboxamide] | 50.25%
